Results: patent US20040097502A1, “Pyrazoles as tgf inhibitors” (priority 2001, published 2004)

Key:
[1] = system: TGF-β signaling (PAI-1 promoter linked to firefly luciferase in HepG2 cells); test: Assay 1: PAI-1 promoter luciferase reporter assay in HepG2 cells after exposure to TGF-β; format: cell-based; details: for IC50: Homo sapiens, HepG2 cells, PAI-1 promoter-luciferase, 1 ng/mL rhTGFβ-1, read-out: IC50 value in Assay 1 (inhibition of TGF-β induced firefly luciferase activity)
Procedure: The assay was performed in HepG2 cells stably transfected with the PAI-1 promoter (known to be a strong TGF-β responsive promoter) linked to a luciferase (firefly) reporter gene. The compounds were selected on their ability to inhibit luciferase activity after exposure to TGF-β. In addition cells were transfected with a second luciferase (Renilla) gene which was not driven by a TGF-β responsive promoter and was used as a toxicity control.
(96 well-)microplates are seeded, using a multidrop apparatus, with the stably transfected cell line at a concentration of 35000 cells per well in 200 μl of serum-containing medium. These plates are placed in a cell incubator.
18 to 24 hours later (Day 2), cell-incubation procedure is launched. Cells are incubated with TGF-β and a candidate compound at concentrations in the range 50 nM to 10 μM (final concentration of DMSO 1%). The final concentration of TGF-β (rhTGFβ-1) used in the test is 1 ng/mL. Cells are incubated with a candidate compound 15-30 mins prior to the addition of TGF-β. The final volume of the test reaction is 150 μl. Each well contains only one candidate compound and its effect on the PAI-1 promoter is monitored.
Columns 11 and 12 are employed as controls. Column 11 contains 8 wells in which the cells are incubated in the presence of TGF-β, without a candidate compound. Column 11 is used to determine the ‘reference TGF-β induced firefly luciferase value’ against which values measured in the test wells (to quantify inhibitory activity) may be compared. In wells A12 to D12, cells are grown in medium without TGF-β. The firefly luciferase values obtained from these positions are representive of the ‘basal firefly luciferase activity’. In wells E12 to H12, cells are incubated in the presence of TGF-β and 500 μM CPO (Cyclopentenone, Sigma), a cell toxic compound.
12 to 18 hours later (day 3), the luciferase quantification procedure is launched. The following reactions are performed using reagents obtained from a Dual Luciferase Assay Kit (Promega). Cells are washed and lysed with the addition of 10 μl of passive lysis buffer (Promega). Following agitation (15 to 30 mins), luciferase activities of the plates are read in a dual-injector luminometer (BMG lumistar). For this purpose, 50 μl of luciferase assay reagent and 50 μl of ‘Stop & Glo’ buffer are injected sequentially to quantify the activities of both luciferases. The mean Luciferase activity value obtained in wells A11 to H11 (Column 11, TGF-β only) is considered to represent 100% and values obtained in wells A12 to D12 (cells in medium alone) give a basal level (0%). For each of the compounds tested, a concentration response curve is constructed from which an IC50 value can be determined graphically.

SMILES	IC50 [1] [µM]	melting point [°C]	firefly and renilla luciferase activities (toxicity control) ([1]; 500 μM CPO in the presence of TGF-β, % of those obtained in column 11 (TGF-β only))
Cc1ccc(Nc2cc(-c3c[nH]nc3-c3ccccn3)ccn2)cc1C [Example 20, (3,4-Dimethyl-phenyl)-[4-(3-pyridin-2-yl-1H-pyrazol-4-yl)-pyridin-2-yl]-amine]	≤ 5	220	
Clc1ccc(Nc2cc(-c3c[nH]nc3-c3ccccn3)ccn2)cc1 [Example 1]	≤ 5	216	
c1ccc(-c2n[nH]cc2-c2ccnc(Nc3ccc(OCCN4CCCCC4)cc3)c2)nc1 [Example 27, [4-(2-Piperidin-1-yl-ethoxy)phenyl]-[4-(3-pyridin-2-yl-1H-pyrazol-4-yl)-pyridin-2-yl]-amine]	≤ 5	176	
Cc1cc(Nc2cc(-c3c[nH]nc3-c3ccccn3)ccn2)ccc1Cl [Example 14, (4-Chloro-3-methyl-phenyl)-[4-(3-pyridin-2-yl-1H-pyrazol-4-yl)-pyridin-2-yl]-amine]	≤ 5	212	
c1ccc(-c2n[nH]cc2-c2ccnc(NCc3ccco3)c2)nc1 [Example 4]	≤ 5	200	
COc1cc(Nc2cc(-c3c[nH]nc3-c3ccccn3)ccn2)ccc1C#N [Example 7]	≤ 5	280	
COc1ccc(Nc2cc(-c3c[nH]nc3-c3ccccn3)ccn2)cc1OC [Example 13, (3,4-Dimethoxy-phenyl)-[4-(3-pyridin-2-yl-1H-pyrazol-4-yl)-pyridin-2-yl]-amine]	≤ 5	210	
Cn1ccnc1COc1cccc(Nc2cc(-c3c[nH]nc3-c3ccccn3)ccn2)c1 [Example 28, [3-(1-Methyl-1H-imidazol-2-ylmethoxy)-phenyl]-[4-(3-pyridin-2-yl-1H-pyrazol-4-yl)-pyridin-2-yl]-amine]	≤ 5	120	
Cc1cccc(Nc2cc(-c3c[nH]nc3-c3ccccn3)ccn2)c1 [Example 11, [4-(3-Pyridin-2-yl-1H-pyrazol-4-yl)-pyridin-2-yl]-m-tolyl-amine]	≤ 5	194	
Fc1ccc(Nc2cc(-c3c[nH]nc3-c3ccccn3)ccn2)cc1 [Example 3]	≤ 5	200	
FC(F)(F)Oc1cccc(Nc2cc(-c3c[nH]nc3-c3ccccn3)ccn2)c1 [Example 19, [4-(3-Pyridin-2-yl-1H-pyrazol-4-yl)-pyridin-2-yl]-(3-trifluoromethoxy-phenyl)-amine]	≤ 5	102.8	
CC(C)Oc1cccc(Nc2cc(-c3c[nH]nc3-c3ccccn3)ccn2)c1 [Example 22, (3-Isopropoxy-phenyl)-[4-(3-pyridin-2-yl-1H-pyrazol-4-yl)-pyridin-2-yl]-amine]	≤ 5	218	
c1ccc(-c2n[nH]cc2-c2ccnc(Nc3ccc(OCCN4CCCC4)cc3)c2)nc1 [Example 12, [4-(3-Pyridin-2-yl-1H-pyrazol-4-yl)-pyridin-2-yl]-[4-(2-pyrrolidin-1-yl-ethoxy)-phenyl]-amine]	≤ 5	224	
COc1ccc(Nc2cc(-c3c[nH]nc3-c3ccccn3)ccn2)cc1 [Example 17, (4-Methoxy-phenyl)-[4-(3-pyridin-2-yl-1H-pyrazol-4-yl)-pyridin-2-yl]-amine]	≤ 5	219	
CS(=O)(=O)c1cccc(Nc2cc(-c3c[nH]nc3-c3ccccn3)ccn2)c1 [Example 5]	≤ 5	146	
Cc1ccc(Nc2cc(-c3c[nH]nc3-c3ccccn3)ccn2)cc1 [Example 18, [4-(3-Pyridin-2-yl-1H-pyrazol-4-yl)-pyridin-2-yl]-p-tolyl-amine]	≤ 5	221	
Oc1ccc(Nc2cc(-c3c[nH]nc3-c3ccccn3)ccn2)cc1 [Example 16, 4-[4-(3-Pyridin-2-yl-1H-pyrazol-4-yl)-pyridin-2-ylamino]-phenol]	≤ 5	268	
FC(F)(F)c1ccc(Nc2cc(-c3c[nH]nc3-c3ccccn3)ccn2)cc1 [Example 21, [4-(3-Pyridin-2-yl-1H-pyrazol-4-yl)-pyridin-2-yl]-(4-trifluoromethyl-phenyl)-amine]	≤ 5	207	
CS(=O)(=O)c1ccc(Nc2cc(-c3c[nH]nc3-c3ccccn3)ccn2)cc1 [Example 23, (4-Methanesulfonyl-phenyl)-[4-(3-pyridin-2-yl-1H-pyrazol-4-yl)-pyridin-2-yl]-amine]	≤ 5	134	
N#Cc1cccc(Nc2cc(-c3c[nH]nc3-c3ccccn3)ccn2)c1 [Example 6]	≤ 5	228	
c1ccc(-c2n[nH]cc2-c2ccnc(Nc3cccc(OCCN4CCCC4)c3)c2)nc1 [Example 9]	≤ 5	141	
COc1cc(Nc2cc(-c3c[nH]nc3-c3cccc(C)n3)ccn2)ccc1C#N [Example 24, 2-Methoxy-4-{4-[3-(6-methyl-pyridin-2-yl)-1H-pyrazol-4-yl]-pyridin-2-ylamino}-benzonitrile]	≤ 5	125	
O=C(c1ccc(Nc2cc(-c3c[nH]nc3-c3ccccn3)ccn2)cc1)N1CCOCC1 [Example 25, Morpholin-4-yl-{4-[4-(3-pyridin-2-yl-1H-pyrazol-4-yl)-pyridin-2-ylamino]-phenyl}methanone]	≤ 5	240	
N#Cc1cc(Nc2cc(-c3c[nH]nc3-c3ccccn3)ccn2)ccc1Cl [Example 15, 2-Chloro-5-[4-(3-pyridin-2-yl-1H-pyrazol-4-yl)-pyridin-2-ylamino]-benzonitrile]	≤ 5	250	
CN1CCN(C(=O)c2ccc(Nc3cc(-c4c[nH]nc4-c4ccccn4)ccn3)cc2)CC1 [Example 26, (4-Methyl-piperazin-1-yl)-{4-[4-(3-pyridin-2-yl-1H-pyrazol-4-yl)-pyridin-2-ylamino]-phenyl}-methanone]	≤ 5	200	
Clc1cccc(Nc2cc(-c3c[nH]nc3-c3ccccn3)ccn2)c1 [Example 10]	≤ 5	205	
O=C1C=CCC1 [CPO, Cyclopentenone, reference compound]			around 50%
c1ccc(-c2n[nH]cc2-c2ccnc(Nc3cccc(OCCN4CCCCC4)c3)c2)nc1 [Example 8]	≤ 5	115	
